# From publication PMC2217226 (The Journal of General Physiology, 2000)
# Entries after “also recorded” stand apart in the source; their conditions may differ. Like-named read-outs stand apart in the source and are kept apart here.
# Legend:
# [1] = system: endogenous SACs in oocytes; details: ref Lane et al., 1991; cited from earlier work
# epithelial Na^+ channels = details: no separate reference printed; cited from earlier work
# [2] = system: SACs in audiovestibular hair cells; details: ref Jorgensen and Ohmori 1988; cited from earlier work
# SACs = details: cited from earlier work
# [3] = system: swelling-activated anion current in astrocytoma cells; details: ref Bakhramov et al. 1995; cited from earlier work
# [4] = system: swelling-activated whole-cell current in adult astrocytes; format: cell-based, rat
# [5] = system: SACs (cation-selective stretch-activated channels) in outside-out patches from adult rat astrocytes; test: SAC activity in outside-out patches, pressure-activated, patch clamp; format: cell-based
# NMDA channel = details: ref Bender et al. 1998; cited from earlier work
# [6] = system: glutamate-stimulated K^+ influx in neonatal astrocytes; details: ref Bender et al. 1998; cited from earlier work
# [7] = system: normal electrical activity of the heart, rabbit; details: Langendorff-perfused rabbit hearts, preliminary; ref Bode et al. 1999; cited from earlier work
# [8] = system: ICl,swell (outwardly rectifying Cl^− current), rabbit CHF ventricular myocytes; test: Swelling-activated anion current in CHF ventricular myocytes, perforated patch; format: cell-based
# [9] = system: rabbit hearts, atrial fibrillation associated with dilatation; details: ref Bode et al. 1999; cited from earlier work
# [10] = system: voltage-sensitive whole-cell currents of astrocytes; test: Voltage-sensitive whole-cell currents, perforated patch; format: cell-based, rat; details: concentration not printed at place
# [11] = Overall charge of the toxin; format: physicochemical; details: from the sequence
# [12] = system: whole-cell current of rabbit CHF ventricular myocytes in 1.5T hypertonic saline; format: cell-based; details: 0.4 μM GsMTx-4, 1.5T hypertonic saline, averages from five cells
# [13] = system: ventricular myocytes from rabbits with aortic regurgitation-induced CHF; test: Myocyte cell volume during perforated patch voltage clamp; format: cell-based, rabbit
# K^+ channel = details: Fig. 8 legend; ref Swartz and MacKinnon 1995; cited from earlier work
# E-type Ca^2+ channels = details: Fig. 8 legend; ref Newcomb et al. 1998; cited from earlier work
# [14] = introduction, ref Hamill and McBride 1996, Sachs and Morris 1998
compound,measurement,setting,value
N=C(N)NC(=O)c1nc(Cl)c(N)nc1N [Amiloride],block of endogenous SACs in oocytes,[1],blocks
same,affinity for epithelial Na^+ channels,epithelial Na^+ channels,nanomolar affinity
same,block of SACs in audiovestibular hair cells,[2],blocks
same,blocking activity against SACs,SACs; [14],low affinity blocking activity
"O=S(=O)(O)c1cc(N=C=S)ccc1C=Cc1ccc(N=C=S)cc1S(=O)(=O)O [DIDS, 4,4′-diisothiocyanatostilbene-2,2′-disulphonic acid, reference compound]",reduction of swelling-activated anion current,[3],significant reduction
same,effect on swelling-activated current (in words),"[4]; 50 μM DIDS, 30 s hypotonic saline, especially at depolarized potentials, n = 6",significant reduction in current
COc1ccc([C@@H]2Sc3ccccc3N(CCN(C)C)C(=O)[C@@H]2OC(C)=O)cc1 [Diltiazem],blocking activity against SACs,SACs; [14],low affinity blocking activity
"N[C@@H](CCC(=O)O)C(=O)O [Glutamate, reference compound]",Activity on astrocyte SACs,"[5]; 10 μM, n = 2 trials, outside-out patches at −50 mV",No activation
same,activation of SACs in unstretched patches,"[5]; 10 μM, unstretched patches that contained SACs",did not activate SACs
C[C@]12N[C@H](Cc3ccccc31)c1ccccc12 [MK801],affinity as NMDA open-channel blocker,NMDA channel,nanomolar affinity
same,effect on glutamate-stimulated K^+ influx,[6],inhibits glutamate-stimulated K^+ influx
"COC(=O)C1=C(C)NC(C)=C(C(=O)OC)C1c1ccccc1[N+](=O)[O-] [Nifedipine, reference compound]",Activity on astrocyte SACs,[5],No block
CC[N+](CC)(CC)CC [tetraethylammonium],blocking activity against SACs,SACs,low affinity blocking activity
GsMTx-4,effect on normal electrical activity of the heart,[7],doesn't block normal electrical activity of the heart
same,"effect on ICl,swell","[8]; 0.4 μM GsMTx-4, isotonic (1.0T), averages from five cells",no effect
same,effect on anion current,"[8]; rabbit dilated cardiomyopathy model, concentration not printed at place",did not affect the anion current
same,I/I0 (ratio of blocked to unblocked current),"[5]; from data of Fig. 6, outside-out patches, −50 mV",0.083
same,dissociation rate constant k d,"[5]; from washout time constant, n = 7 patches",0.21 s⁻¹
same,state dependence of block,"[5]; mechanism of action, closed channels",can act on closed channels
same,block of SACs,"[5]; outside-out patches, 1:1,000 dilution, 8 μg/ml, rapid upon superfusion",the block was complete
same,suppression of cardiac arrhythmias,[9],ability to suppress cardiac arrhythmias
same,activity against voltage-sensitive whole-cell currents,[10],no effect on whole-cell voltage-sensitive currents; also recorded: did not effect voltage-sensitive currents; also recorded: negligible activity
same,overall charge,[11],+5
same,effect on whole-cell current,[12],unaffected; also recorded: did not affect membrane currents
same,cell volume reduction,"[13]; 0.4 μM GsMTx-4, 1.0T solution, averages from five cells",7%
same,cell volume after osmotic shrinkage,"[13]; 0.4 μM GsMTx-4, 1.5T solution, averages from five cells",unaffected
same,cell volume reduction relative to that produced by 1.5T saline,"[13]; 0.4 μM GsMTx-4, isotonic",~40%
same,effect on peak swelling-activated current (in words),"[4]; 5 μM GsMTx-4, 30 s after hypotonic exposure",significantly reduced the peak current response
same,reduction in peak swelling-activated current,"[4]; 5 μM GsMTx-4, 30 s, after subtracting resting current, representative cell (Fig. 9 C)",~75%
same,change in reversal potential of swelling-activated current,"[4]; 5 μM GsMTx-4, statistically indistinguishable from 0 mV",+2 mV
same,reduction in swelling-activated anion current,"[4]; adult astrocytes, discussion",40–50%
same,reduction in swelling-activated whole-cell current,"[4]; hypotonically swollen astrocytes, potential not printed at place",~40%
same,recovery of swelling currents after washout,[4]; ∼4 min after washout of 5 μM GsMTx-4,partially recovered
Hanatoxin,K^+ channel block,K^+ channel,K^+ channel blocker
"SNX-482: peptide toxin that blocks E-type Ca^2+ channels (GVDKAGCRYMFGGCSVNDDCCPRLGCHSLFSYCAWDLTFSD; UniProt P56854 1-41, looked up)",E-type Ca^2+ channel block,E-type Ca^2+ channels,blocks E-type Ca^2+ channels
